Test results reported in patent publication US20260132123A1, “ABAD INHIBITOR COMPOUNDS” (UNIVERSITY COURT OF THE UNIVERSITY OF ST ANDREWS, priority 2021, published 2026).

Molecular target: T1, 17β-HSD10 (Homo sapiens, UniProt Q99714)
T1 construct: Histev (histidine tag with TEV site) (N, cleaved yes); made in house; host or cells: E. coli BL21-CodonPlus
T1 sequence (Q99714 1-261): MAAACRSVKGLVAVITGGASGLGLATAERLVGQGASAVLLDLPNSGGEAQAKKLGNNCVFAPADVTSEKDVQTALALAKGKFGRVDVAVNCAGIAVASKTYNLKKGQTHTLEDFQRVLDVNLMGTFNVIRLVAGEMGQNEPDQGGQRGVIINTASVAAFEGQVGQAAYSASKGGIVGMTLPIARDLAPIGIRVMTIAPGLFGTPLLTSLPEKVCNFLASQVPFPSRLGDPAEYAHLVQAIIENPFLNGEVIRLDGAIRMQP
Assay: 17β-HSD10 (ABAD) enzyme inhibition assay, NADH oxidation read at 340 nm (primary screen and dose response)
Assay type: biochemical
Conditions: for EC50 / Max. Effect (%) / Hill Slope / Max. Fit / Min. Fit: recombinant 17βHSD10 enzyme assay; for Hill Slope / Max. Fit / Min. Fit: curve fit
Procedure: Cell pellets of E. coli BL21-CodonPlus cells containing Histev-17β-HSD10 protein were re-suspended for 30 min, 4° C., in lysis buffer (20 mM NaH2PO4, 30 mM imidazole, 500 mM NaCl, 10% (v/v) glycerol, pH 7.5) with the addition of complete ethylenediaminetetraacetic acid (EDTA)-free protease inhibitor tablets (Roche), lysozyme (1 mg/mL), deoxyribonuclease (DNase) (20 μg/mL) and Triton X-100 (0.1% (v/v)). Cells were lysed by passage through a cell disruptor at 30 kPSI (Constant Systems Ltd) and the lysate was cleared by centrifugation (Sorvall Evolution RC, rotor S5-34 55-34 angle, 20500 rpm, 30 min, 4° C.). Cleared lysate was filtered (0.45 μm membrane; Whatman) then applied to a Ni-nitrilotriacetic acid (NTA) (GE Healthcare) column pre-washed with lysis buffer and protein eluted with 300 mM imidazole buffer (20 mM NaH2PO4, 300 mM imidazole, 500 mM NaCl, 10% (v/v) glycerol, pH 7.5). […] Protein digestion and dialysis was carried out at 4° C. for 16 h.
Complete digestion was firstly checked by sodium dodecyl sulfate-polyacrylamide gel electrophoresis (SDS-PAGE), then fully digested protein was passed over a second Ni-column and the flow-through, containing 17β-HSD10 protein, was concentrated using a Vivaspin column (10 kDa MWCO, GE Healthcare) to ˜7 mL before final purification using gel filtration to remove imidazole (Hi-Load 16/60 Superdex 75 prep grade column, GE Healthcare, flow rate 1.5 mL/min). Protein was eluted in gel filtration buffer (10 mM trisaminomethane (Tris-HCl), 150 mM NaCl, 10% glycerol, pH 7.5) and concentrated (Vivaspin column (10 kDa molecular weight cut off (MWCO), GE Healthcare)) to 10 mg/mL. Aliquots (10 μL) were taken and flash frozen in liquid nitrogen before final storage at −80° C.
The assay buffer used contains: 10 mM Tris. HCl (pH 7.4), 150 mM NaCl, 1 mM DTT, 0.005% Tween (polysorbate 20) and 0.01% bovine serum albumin (BSA). As indicated for some experiments the assay buffer was supplemented with 100 units/ml bovine liver catalase. All experiments were conducted in clear bottom 384-well or 1536-well low volume microplates (Corning) with a final assay volume of 20 μL and the reaction progress was monitored by oxidation of NADH as determined by reduction in absorbance at 340 nm read on the EnVision plate reader (PerkinElmer).
For primary screening an endpoint assay format was adopted in which an Echo acoustic liquid dispenser (Labcyte) was used to transfer 20 nL of either reference standard, dimethylsulfoxide (DMSO) control ([…] final assay concentration (FAC)) or test compounds (10 μM FAC) to the assay plate. 10 μL of 17β-HSD10 enzyme in assay buffer (2.5 nM, FAC) was then added to the plates using the Preddator liquid handling robot (Redd and Whyte) and plates were incubated at room temperature for 15 minutes. 10 μL of substrate mixture (100 μM acetoacetyl-CoA and 100 μM NADH, FAC) was added with the Preddator. To start the reaction and the plates were left to incubate for 35 minutes at room temperature before the absorbance at 340 nm was read on the EnVision plate reader (PerkinElmer). For kinetic assay format and dose response follow up experiments the same protocol was adopted but the absorbance at 340 nm was monitored constantly for 45 minutes from immediately after the reaction was started.

Compound | EC50 [nM] | Max. Effect (%) | Hill Slope | Max. Fit | Min. Fit | 17β-HSD10 / ABAD activity in words (SAR discussion)
COc1cccc(-c2ccccc2[C@@H]2CCCN2C(=O)c2cocn2)c1 (racemic) [ESC1002598] | > 20000 | 50 | – | – | – | –
COc1cccc(-c2ccccc2[C@@H]2CCCN2C(=O)c2nc[nH]n2)c1 (racemic) [ESC1002599] | > 20000 | 10 | – | – | – | –
COc1cccc(-c2ccccc2[C@@H]2CCCN2C(=O)c2ncc[nH]2)c1 (racemic) [ESC1002600] | 4370 | 75 | 1.2 | 86 | 1 | –
COc1cccc(-c2ccccc2[C@@H]2CCCN2C(=O)c2cn[nH]c2)c1 (racemic) [ESC1002601] | 6310 | 82 | 0.74 | 115 | −7 | –
COc1cccc(-c2ccccc2[C@@H]2CCCN2C(=O)C23CC(C2)C3)c1 (racemic) [ESC1002602] | > 20000 | 43 | – | – | – | –
COc1cccc(-c2ccccc2[C@@H]2CCCN2C(=O)C(C)C)c1 (racemic) [ESC1002603] | > 20000 | 21 | – | – | – | –
COc1cccc(-c2ccccc2[C@@H]2CCCN2C(=O)C(C)(C)C)c1 (racemic) [ESC1002604] | > 20000 | 20 | – | – | – | –
COc1cccc(-c2ccccc2[C@@H]2CCCN2C(=O)c2[nH]ncc2Cl)c1 (racemic) [ESC1002626] | 457 | 95 | 1.6 | 91 | −1 | –
COc1cccc(-c2ccccc2[C@@H]2CCCN2C(=O)c2snc(Cl)c2Cl)c1 (racemic) [ESC1002627] | > 20000 | 5 | – | – | – | –
COc1cccc(-c2ccccc2[C@@H]2CCCN2C(=O)c2nccn2C)c1 (racemic) [ESC1002661] | > 20000 | 7 | – | – | – | –
COc1cc(OC)cc(-c2ccccc2[C@@H]2CCCN2C(=O)c2sccc2Cl)c1 (racemic) [ESC1002662] | 603 | 92 | 1.2 | 92 | −1 | –
COc1ccc(-c2ccccc2[C@@H]2CCCN2C(=O)c2sccc2Cl)cc1OC (racemic) [ESC1002663] | 575 | 93 | 1.1 | 95 | −8 | –
CCOc1cccc(-c2ccccc2[C@@H]2CCCN2C(=O)c2sccc2Cl)c1 (racemic) [ESC1002664] | 417 | 92 | 1.2 | 92 | 0 | –
COc1cc(-c2ccccc2[C@@H]2CCCN2C(=O)c2sccc2Cl)ccn1 (racemic) [ESC1002665] | 603 | 95 | 1 | 97 | −3 | –
O=C(c1sccc1Cl)N1CCCC1c1ccccc1-c1cccc(O)c1 (racemic) [ESC1002666, (3-chlorothiophen-2-yl)(2-(3′-hydroxy-[1,1′-biphenyl]-2-yl)pyrrolidin-1-yl)methanone] | 58.9 | 99 | 1.1 | 98 | 0 | –
COc1cccc(-c2ccccc2[C@@H]2CCCN2Cc2sccc2F)c1 (racemic) [ESC1002695] | > 20000 | 1 | – | – | – | lost all activity
O=C(c1sccc1Cl)N1CCC[C@H]1c1ccccc1-c1ccc(O)cc1 (racemic) [ESC1002696] | 302 | 97 | 1.2 | 97 | 1 | –

Compound | EC50 [nM] | Max. Effect (%) | Hill Slope | Max. Fit | Min. Fit | 17β-HSD10 / ABAD activity in words (SAR discussion)
O=C(c1sccc1Cl)N1CCC[C@H]1c1ccccc1-c1ccnc(O)c1 (racemic) [ESC1002697] | > 20000 | 43 | – | – | – | less active
O=C(c1sccc1Cl)N1CCC[C@H]1c1ccccc1-c1cncnc1 (racemic) [ESC1002698] | 7410 | 59 | 1.1 | 71 | 1 | –
COc1cc(-c2ccccc2[C@@H]2CCCN2C(=O)c2sccc2Cl)ccc1F (racemic) [ESC1002699] | 263 | 97 | 1.2 | 96 | 5 | –
COc1cc(-c2ccccc2[C@@H]2CCCN2C(=O)c2sccc2Cl)ccc1C (racemic) [ESC1002700] | 398 | 93 | 1.4 | 92 | −2 | –
O=C(c1sccc1Cl)N1CCC[C@H]1c1ccccc1-c1ccc2[nH]ncc2c1 (racemic) [ESC1002701] | 288 | 99 | 1.2 | 96 | 0 | –
O=C(c1sccc1Cl)N1CCC[C@H]1c1ccccc1-c1cccc2[nH]ncc12 (racemic) [ESC1002702] | 1260 | 91 | 0.91 | 98 | −9 | less active
Cn1cc(-c2ccccc2[C@@H]2CCCN2C(=O)c2sccc2Cl)cn1 (racemic) [ESC1002704] | 1070 | 98 | 1 | 103 | −10 | –
O=C(c1sccc1Cl)N1CCC[C@H]1c1ccccc1-c1ccc(F)c(O)c1 (racemic) [ESC1002775] | 49 | 100 | 1.2 | 96 | 0 | –
O=C(c1sccc1Cl)N1CCC[C@H]1c1ccccc1-c1cc(O)cc(F)c1 (racemic) [ESC1002776] | 40.7 | 99 | 1 | 96 | −1 | –
Cc1ccsc1C(=O)N1CCC[C@H]1c1ccccc1-c1cccc(C(F)(F)F)c1 (racemic) [ESC1002789] | – | 11 | – | – | – | –
Cc1ccsc1C(=O)N1CCC[C@H]1c1ccccc1-c1cccc(C(F)(F)F)c1 (racemic) [ESC1002790] | – | 93 | 1.2 | 93 | −1 | –
COc1cccc(-c2ccccc2[C@H]2CCCN2C(=O)c2sccc2C)c1 (single isomer, unassigned) [ESC1002420] | > 20000 | 28 | – | – | – | –
COc1cccc(-c2ccccc2[C@@H]2CCCN2C(=O)c2sccc2C)c1 (single isomer, unassigned) [ESC1002421] | 186 | 97 | 1.6 | 95 | 11 | –
O=C(c1sccc1Cl)N1CCC[C@H]1c1ccccc1-c1cccc(O)c1 (single isomer, unassigned) [ESC1002754] | > 20000 | 20 | – | – | – | –
COc1cccc(-c2ccccc2[C@@H]2CCCN2C(=O)c2[nH]ncc2Cl)c1 (single isomer, unassigned) [ESC1002756] | > 20000 | 24 | – | – | – | –
Cc1ccsc1C(=O)N1CCC[C@H]1c1ccccc1-c1ccccc1Cl (single isomer, unassigned) [ESC1002766] | > 20000 | 14 | – | – | – | –
